Test results reported in US7053189B2 (Oregon Health & Sciences University, priority 1990, dated 2006).
Like-named read-outs stand apart in the source and are kept apart here.

Assays:
[1] = target: D2 in pig anterior pituitary homogenates (Sus scrofa, UniProt A0ACM8QMZ9); assay type: binding; conditions: for Ki: read-out: D2Ki
[2] = target: T1, human D4 dopamine receptor (Homo sapiens, UniProt P21917, DEL271-302/N396T/P18R)
T1 sequence (P21917 with tags, fused parts or gaps P18R/DEL271-302/N396T): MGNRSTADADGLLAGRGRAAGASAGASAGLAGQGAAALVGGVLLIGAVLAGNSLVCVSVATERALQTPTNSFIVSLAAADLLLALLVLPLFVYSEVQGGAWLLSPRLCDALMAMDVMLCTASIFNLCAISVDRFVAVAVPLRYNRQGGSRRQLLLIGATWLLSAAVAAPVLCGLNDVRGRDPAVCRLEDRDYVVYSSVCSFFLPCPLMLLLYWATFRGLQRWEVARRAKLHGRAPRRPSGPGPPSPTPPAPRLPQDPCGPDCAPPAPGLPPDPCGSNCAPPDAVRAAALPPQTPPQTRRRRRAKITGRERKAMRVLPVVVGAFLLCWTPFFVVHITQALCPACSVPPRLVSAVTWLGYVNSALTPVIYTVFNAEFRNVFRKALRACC

[3] = target: T1, human D4 dopamine receptor; assay: [3H]spiperone binding to membranes of COS-7 cells transfected with human D4 receptor construct
human D2 (long) = target: T2, human D2 (long) (Homo sapiens, UniProt P14416); assay: D2 dissociation constants, human D2 receptor expressed in GH(4)ZR(7) cells; assay type: binding
T2 construct: expressed in transfected cells; host or cells: GH(4)ZR(7)

[4] = target: T1, human D4 dopamine receptor; assay: biochemical
[5] = T = Ki in pig anterior pituitary homogenates, no unit in table

Chain of D2 in pig anterior pituitary homogenates (A0ACM8QMZ9 1-443): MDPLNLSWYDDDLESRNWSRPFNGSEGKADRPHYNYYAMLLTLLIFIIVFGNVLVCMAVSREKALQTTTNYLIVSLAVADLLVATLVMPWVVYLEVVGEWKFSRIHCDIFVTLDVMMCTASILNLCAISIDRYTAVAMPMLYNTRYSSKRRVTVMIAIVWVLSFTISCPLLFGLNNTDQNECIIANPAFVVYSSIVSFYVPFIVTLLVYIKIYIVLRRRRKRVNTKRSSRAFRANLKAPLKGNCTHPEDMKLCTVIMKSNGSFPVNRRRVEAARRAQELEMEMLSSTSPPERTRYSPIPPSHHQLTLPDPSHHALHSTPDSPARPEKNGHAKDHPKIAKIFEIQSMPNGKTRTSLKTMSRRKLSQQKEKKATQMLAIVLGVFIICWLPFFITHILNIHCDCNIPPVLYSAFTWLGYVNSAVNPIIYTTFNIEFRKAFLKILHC
T2 sequence (P14416 whole entry): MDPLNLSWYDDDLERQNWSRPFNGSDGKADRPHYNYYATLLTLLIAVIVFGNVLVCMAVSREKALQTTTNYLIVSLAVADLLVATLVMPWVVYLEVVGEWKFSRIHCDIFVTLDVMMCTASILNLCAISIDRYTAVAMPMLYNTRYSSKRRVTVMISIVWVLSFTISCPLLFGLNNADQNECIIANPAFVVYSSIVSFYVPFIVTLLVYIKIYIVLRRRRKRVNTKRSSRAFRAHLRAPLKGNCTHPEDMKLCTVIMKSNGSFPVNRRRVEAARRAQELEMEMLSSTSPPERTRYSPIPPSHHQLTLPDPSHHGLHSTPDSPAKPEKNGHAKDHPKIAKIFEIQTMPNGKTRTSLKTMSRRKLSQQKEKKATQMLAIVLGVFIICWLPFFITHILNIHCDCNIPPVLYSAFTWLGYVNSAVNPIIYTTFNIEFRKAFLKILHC

| Compound | Ki [1, 5] | Ki [4] | also measured |
| --- | --- | --- | --- |
| NC1CCc2cc(O)c(O)cc2C1 (racemic) [ADTN-(±)] | 1.7 nM |  | Ki [2]: 33.7 nM |
| NC[C@H](O)c1ccc(O)c(O)c1 [(−) Noradrenaline] |  |  | Ki [1]: ~6000 nM |
| CC(C)C[C@H]1C(=O)N2CCC[C@H]2[C@]2(O)O[C@](NC(=O)[C@@H]3C=C4c5cccc6[nH]c(Br)c(c56)C[C@H]4N(C)C3)(C(C)C)C(=O)N12 [Bromocriptine] |  |  | Ki [3]: 128 nM; Ki (human D2 (long)): 14 nM |
| CC(C)C[C@H]1C(=O)N2CCC[C@H]2[C@]2(O)O[C@](NC(=O)[C@@H]3C=C4c5cccc6[nH]cc(c56)C[C@H]4N(C)C3)(C(C)C)C(=O)N12 [Ergocriptine-S] | 0.4 nM |  | Ki ([3]; read-out: D4Ki): 55 nM |
| CCc1cc(Cl)c(OC)c(C(=O)NC[C@@H]2CCCN2CC)c1O [Eticlopnde] |  |  | Ki [3]: 0.52 nM; [formula] (ratio D2Ki to D4Ki) [1]: 0.17 |
| OCCN1CCN(CCCN2c3ccccc3Sc3ccc(C(F)(F)F)cc32)CC1 [Fluphenazine] |  | 42 nM |  |
| O=C(c1ccc(F)cc1)C1CCN(CCn2c(=O)[nH]c3ccccc3c2=O)CC1 [Ketanserin] |  | 147 nM |  |
| CCCN(CCc1cccs1)[C@H]1CCc2c(O)cccc2C1 [N-0437] | 0.7 nM |  | Ki [2]: 93 nM |
| CCCN1CCc2cccc3c2[C@H]1Cc1ccc(O)c(O)c1-3 [NPA] | 0.4 nM |  | Ki [2]: 5.5 nM |
| CN1CCN(C2Cc3ccccc3Sc3ccc(Cl)cc32)CC1 (centres unmarked) [Octoclothepin-R] |  |  | Ki [1]: 13.5 nM |
| CCCN1CCO[C@@H]2c3cc(O)ccc3CC[C@H]21 [PHNO-(+)] | 1.2 nM |  | Ki [2]: 42 nM |
| O=c1[nH]c2ccccc2n1C1CCN(CCCC(c2ccc(F)cc2)c2ccc(F)cc2)CC1 [Pimozide] |  |  | Ki [3]: 25 nM |
| CCCN1CCC[C@@H]2Cc3n[nH]cc3C[C@H]21 [Quinpirole(−)] | 4.8 nM |  |  |
| CCN1CCC[C@H]1CNC(=O)c1c(O)c(Cl)cc(Cl)c1OC [Raclopride] |  | 253 nM |  |
| CN1CCc2cc(Cl)c(O)cc2[C@@H](c2ccccc2)C1 [SCH23390] |  | 1960 nM |  |
| Oc1cc2c(cc1O)C(c1ccccc1)CNCC2 (centres unmarked) [SKF-38393] |  |  | Ki [3]: 1600 nM |
| NCCc1c[nH]c2ccc(O)cc12 [Serotonin] |  | ~8000 nM |  |
| CN1CCN(CCCN2c3ccccc3Sc3ccc(S(=O)(=O)N(C)C)cc32)CC1 [Thioproperazine] |  | 53 nM |  |
| CSc1ccc2c(c1)N(CCC1CCCCN1C)c1ccccc1S2 (centres unmarked) [Thioridazine] |  | 12 nM |  |
| CNc1cc(OC)c(C(=O)NC2CCN(Cc3ccccc3)C2C)cc1Cl (centres unmarked) [YM-09151-2] | 0.06 nM |  |  |
| Fencidopam | 2.8 nM |  | Ki [2]: 420 nM |
